Source: US7153685B2 (The Board of Trustees of the University of Illinois, priority 2002, dated 2006)

Assays:
[1] = system: mutant and chimeric estrogen receptors
wild type hERα = biological target: T1, wild type hERα (Homo sapiens, UniProt P03372, G400V); test: Ligand-dependent luciferase reporter transactivation in transfected HepG2 cells
T1 sequence (P03372 1-595 G400V): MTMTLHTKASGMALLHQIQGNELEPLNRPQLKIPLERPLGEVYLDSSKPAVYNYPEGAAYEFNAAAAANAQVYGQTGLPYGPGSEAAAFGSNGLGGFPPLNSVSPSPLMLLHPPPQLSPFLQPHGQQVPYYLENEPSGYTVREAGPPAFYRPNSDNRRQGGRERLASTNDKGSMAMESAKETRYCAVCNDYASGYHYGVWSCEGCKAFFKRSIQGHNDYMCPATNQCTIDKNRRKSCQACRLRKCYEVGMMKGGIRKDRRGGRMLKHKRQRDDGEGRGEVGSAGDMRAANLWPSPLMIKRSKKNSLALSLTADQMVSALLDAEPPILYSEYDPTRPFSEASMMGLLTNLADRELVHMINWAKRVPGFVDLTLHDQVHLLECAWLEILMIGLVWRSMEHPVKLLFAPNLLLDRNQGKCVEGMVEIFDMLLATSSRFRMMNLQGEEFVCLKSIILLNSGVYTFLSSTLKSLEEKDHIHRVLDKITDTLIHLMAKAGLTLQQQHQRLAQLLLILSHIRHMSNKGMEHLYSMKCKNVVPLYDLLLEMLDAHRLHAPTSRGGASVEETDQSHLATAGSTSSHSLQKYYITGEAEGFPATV
Experimental: (§3) HepG2 human hepatoma cells were maintained in a humidified 5% CO2 incubator at 37° C. in Dulbecco's Modified Eagle's Medium (DMEM; Sigma; St. Louis, Mo.) supplemented with 10 % charcoal-dextran-stripped fetal bovine serum (CD-FBS; Atlanta Biologicals, Inc; Atlanta, Ga.), 50,000 U/l of penicillin, and 50 mg/liter streptomycin (Life Technologies, Inc.). MCF-7 cells were routinely maintained in DMEM/Nutrient Mixture F-12 (DMEM/F12) supplemented with 10% heat-inactived FBS, 50,000 U/l of penicillin, and 50 mg/l streptomycin. CHO-S cells were maintained in DMEM/F12 supplemented with 10% heat-inactivated FBS (CD-FBS when ERs were being expressed) or 10% CD-new born calf serum (CD-NBCS, when reporter activity by different ligands were measured), 29.2 mg/l L-glutamine (Sigma), and 50,000 U/l of penicillin and 50 mg/l streptomycin.
Transient transfections in HepG2 cells was accomplished using calcium phosphate co-precipitation (Ausubel et al., 1987). Briefly, cells were plated in 12-well microplates at a density of 1×10^5 cells/well. The next day, the medium was replaced, and 2–6 hours later, precipitated calcium phosphate:DNA co-crystals were added. After 12–16 hours, the cells were shocked for 3 minutes with 20% glycerol in Tris-buffered saline, pH 7.4. Fresh medium and (if any) hormones were added. For MCF-7 and 231 cells, transient transfection was carried out using the Tfx™-20 reagent (Promega; Madison, Wis.) according to the manufacturer's direction with minor changes. Briefly, 1×10^5 cells were plated in each well of 12-well microplates one day before transfection. A 1:3 ratio of DNA to lipid was used. The DMEM/F12 medium without serum was used as carrier for the DNA-lipid mixture. After 1 hour incubation with the DNA-lipid-DMEM/F12 at 37° C., the cells were transferred to fresh DMEM/F12 supplemented with 10% CD-FBS, 50,000 U/I of penicillin, 50 mg/l streptomycin and hormones. Transfection on CHO—S cells was described as above for the preparation of ERs extraction except the medium contained 10% CD-NBCS. The cells subjected to either transfection method were harvested 48 hours post-transfection. Reporter assays were performed by lysing the cells in situ with 250 μl of passive lysis buffer (Promega). Activity was determined using the dual luciferase assay protocol according to the manufacturer's directions (Promega) on a Monolight 2010 luminometer (Analytical Luminescence, San Diego, Calif.)
Transient transfections of HepG2 cells were carried out and luciferase activity determined.

ER3M = ER3M (Homo sapiens, UniProt P03372, E203W/G400V/H216G/Q214A)
ER 2 = ER 2 (Homo sapiens, UniProt P03372, E203W/G215R/G400V/Q214A); conditions: ATL2/PAL-LUC, 10 nM ligand
Experimental: as §3
Transient transfections in HepG2 cells was accomplished using calcium phosphate co-precipitation (Ausubel et al., 1987). Briefly, cells were plated in 12-well microplates at a density of 1×10^5 cells/well. The next day, the medium was replaced, and 2–6 hours later, precipitated calcium phosphate:DNA co-crystals were added. […] Activity was determined using the dual luciferase assay protocol according to the manufacturer's directions (Promega) on a Monolight 2010 luminometer (Analytical Luminescence, San Diego, Calif.)

ER 4.3 = ER 4.3 (Homo sapiens, UniProt P03372, E203W/G215R/G400V/H216P/N217T/Q214V)
Experimental: as §3
Transient transfections in HepG2 cells was accomplished using calcium phosphate co-precipitation (Ausubel et al., 1987). Briefly, cells were plated in 12-well microplates at a density of 1×10^5 cells/well. The next day, the medium was replaced, and 2–6 hours later, precipitated calcium phosphate:DNA co-crystals were added. […] Activity was determined using the dual luciferase assay protocol according to the manufacturer's directions (Promega) on a Monolight 2010 luminometer (Analytical Luminescence, San Diego, Calif.) […]

N-79 [2] = biological target: T2, N-79 (Homo sapiens, UniProt P03372, E203W/G400V/H216G/Q214A); conditions: CHO-S cells, 10 nM OHT
Source text: (§1) These fragments were digested with KpnI and BamHI and then purified from agarose gels. […] To create C-129, this ER fragment was digested with XbaI and KpnI and then cloned together with the DNA fragment containing 129 amino acids of VP16 into 5.9 kb vector generated by digestion of CMV-hER with XbaI and BamHI. The same strategy was adopted to create C-79 using the DNA fragment containing 79 amino acids of VP16. Therefore, the expression of these chimeras is driven by the same CMV promoter as that of ER-3M. […] The amplified PCR product was digested with NcoI and NotI. […] This fragment and the NcoI/NotI PCR fragment were then inserted together into the 4.3 kb vector, pGL3-ATL8/PAL-LUC, which was created by digesting ATL8/PAL-LUC completely with NcoI and partially with XbaI so that the luciferase gene was replaced by N-79.
(§2) A second plasmid also containing 8 copes of pS2 PAL drives expression of the reporter gene (FIG. 11, ATL8/PAL-LUC).

[3] = system: wild type ER and the ER mutants
Experimental: HepG2 human hepatoma cells were maintained in a humidified 5% CO2 incubator at 37° C. in Dulbecco's Modified Eagle's Medium (DMEM; Sigma; St. Louis, Mo.) supplemented with 10 % charcoal-dextran-stripped fetal bovine serum (CD-FBS; Atlanta Biologicals, Inc; Atlanta, Ga.), 50,000 U/l of penicillin, and 50 mg/liter streptomycin (Life Technologies, Inc.). MCF-7 cells were routinely maintained in DMEM/Nutrient Mixture F-12 (DMEM/F12) supplemented with 10% heat-inactived FBS, 50,000 U/l of penicillin, and 50 mg/l streptomycin.
Briefly, cells were plated in 12-well microplates at a density of 1×10^5 cells/well. The next day, the medium was replaced, and 2–6 hours later, precipitated calcium phosphate:DNA co-crystals were added. After 12–16 hours, the cells were shocked for 3 minutes with 20% glycerol in Tris-buffered saline, pH 7.4. Fresh medium and (if any) hormones were added. For MCF-7 and 231 cells, transient transfection was carried out using the Tfx™-20 reagent (Promega; Madison, Wis.) according to the manufacturer's direction with minor changes. Briefly, 1×10^5 cells were plated in each well of 12-well microplates one day before transfection. A 1:3 ratio of DNA to lipid was used. The DMEM/F12 medium without serum was used as carrier for the DNA-lipid mixture. After 1 hour incubation with the DNA-lipid-DMEM/F12 at 37° C., the cells were transferred to fresh DMEM/F12 supplemented with 10% CD-FBS, 50,000 U/I of penicillin, 50 mg/l streptomycin and hormones. Transfection on CHO—S cells was described as above for the preparation of ERs extraction except the medium contained 10% CD-NBCS. The cells subjected to either transfection method were harvested 48 hours post-transfection. Reporter assays were performed by lysing the cells in situ with 250 μl of passive lysis buffer (Promega).
The data represent the mean±S.E. of three independent transfections.

N-79 [4] = biological target: T2, N-79; test: Autoregulated expression system (ATL8/PAL-N-79 + ATL8/PAL-LUC) in 231 human breast cancer cells; format: cell-based; set-up: expressed in transfected cells; host or cells: HepG2 (A20); 231 human breast cancer cells (A21); CHO-S (A22); conditions: 10 nM OHT
Source text: as §1, §2

N-79 [5] = biological target: T2, N-79; test: Autoregulated expression system (ATL8/PAL-N-79 + ATL8/PAL-LUC) in HepG2 cells; format: cell-based; set-up: expressed in transfected cells; host or cells: HepG2 (A20); 231 human breast cancer cells (A21); CHO-S (A22); conditions: HepG2 human hepatoblastoma cells, 10 nM OHT
Source text: as §1, §2

ER mutant 4.3 = ER mutant 4.3 (Homo sapiens, UniProt P03372, E203W/G215R/G400V/H216P/N217T/Q214V); conditions: 10 μM ligand
Experimental: HepG2 human hepatoma cells were maintained in a humidified 5% CO2 incubator at 37° C. in Dulbecco's Modified Eagle's Medium (DMEM; Sigma; St. Louis, Mo.) supplemented with 10 % charcoal-dextran-stripped fetal bovine serum (CD-FBS; Atlanta Biologicals, Inc; Atlanta, Ga.), 50,000 U/l of penicillin, and 50 mg/liter streptomycin (Life Technologies, Inc.).
Transient transfections in HepG2 cells was accomplished using calcium phosphate co-precipitation (Ausubel et al., 1987). Briefly, cells were plated in 12-well microplates at a density of 1×10^5 cells/well. The next day, the medium was replaced, and 2–6 hours later, precipitated calcium phosphate:DNA co-crystals were added. After 12–16 hours, the cells were shocked for 3 minutes with 20% glycerol in Tris-buffered saline, pH 7.4. Fresh medium and (if any) hormones were added. For MCF-7 and 231 cells, transient transfection was carried out using the Tfx™-20 reagent (Promega; Madison, Wis.) according to the manufacturer's direction with minor changes. Briefly, 1×10^5 cells were plated in each well of 12-well microplates one day before transfection. A 1:3 ratio of DNA to lipid was used. […] Activity was determined using the dual luciferase assay protocol according to the manufacturer's directions (Promega) on a Monolight 2010 luminometer (Analytical Luminescence, San Diego, Calif.) […]

[6] = ATL8/PAL-LUC, 2.5 ng expression plasmid, 10 nM OHT

Sequence of ER3M (P03372 whole entry E203W/Q214A/H216G/G400V): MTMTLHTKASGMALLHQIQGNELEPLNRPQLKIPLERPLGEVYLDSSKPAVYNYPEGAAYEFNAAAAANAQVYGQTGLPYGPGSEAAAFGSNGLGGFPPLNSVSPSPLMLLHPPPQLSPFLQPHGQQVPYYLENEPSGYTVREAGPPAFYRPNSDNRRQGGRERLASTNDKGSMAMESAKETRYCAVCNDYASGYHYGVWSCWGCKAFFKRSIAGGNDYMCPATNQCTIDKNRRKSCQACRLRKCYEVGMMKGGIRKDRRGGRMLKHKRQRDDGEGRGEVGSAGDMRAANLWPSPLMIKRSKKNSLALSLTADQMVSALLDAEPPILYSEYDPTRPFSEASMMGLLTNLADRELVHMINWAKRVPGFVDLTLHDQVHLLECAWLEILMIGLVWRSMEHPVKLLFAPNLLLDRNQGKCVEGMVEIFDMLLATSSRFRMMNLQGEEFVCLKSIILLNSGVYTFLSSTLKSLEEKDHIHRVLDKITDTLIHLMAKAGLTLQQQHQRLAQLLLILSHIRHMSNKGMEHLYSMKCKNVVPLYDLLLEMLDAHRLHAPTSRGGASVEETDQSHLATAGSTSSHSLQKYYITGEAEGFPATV
T2 sequence (P03372 with tags, fused parts or gaps E203W/Q214A/H216G/G400V): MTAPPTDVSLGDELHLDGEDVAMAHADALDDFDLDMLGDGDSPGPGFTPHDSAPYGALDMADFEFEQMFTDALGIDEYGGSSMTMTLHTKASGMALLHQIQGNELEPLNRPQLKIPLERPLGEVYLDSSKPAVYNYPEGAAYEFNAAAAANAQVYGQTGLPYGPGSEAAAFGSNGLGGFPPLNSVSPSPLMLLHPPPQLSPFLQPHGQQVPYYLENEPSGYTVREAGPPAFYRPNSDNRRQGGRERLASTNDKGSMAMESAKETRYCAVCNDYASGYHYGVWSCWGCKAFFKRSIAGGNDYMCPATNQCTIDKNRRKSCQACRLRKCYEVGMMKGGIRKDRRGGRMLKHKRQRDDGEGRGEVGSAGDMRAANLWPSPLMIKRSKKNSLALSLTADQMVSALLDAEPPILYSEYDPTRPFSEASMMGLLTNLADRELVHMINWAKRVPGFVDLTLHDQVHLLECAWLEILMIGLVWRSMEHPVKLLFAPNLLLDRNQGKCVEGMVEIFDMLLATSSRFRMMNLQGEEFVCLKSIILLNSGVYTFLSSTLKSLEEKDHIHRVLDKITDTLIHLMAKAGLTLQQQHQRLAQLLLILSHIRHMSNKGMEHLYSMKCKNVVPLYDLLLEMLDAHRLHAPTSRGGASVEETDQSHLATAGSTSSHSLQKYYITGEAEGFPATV
Sequence of ER mutant 4.3 (P03372 whole entry E203W/Q214V/G215R/H216P/N217T/G400V): as the sequence (P03372 whole entry E203W/Q214A/H216G/G400V) above, with A214V, G215R, G216P, N217T counted along it
Sequence of ER 4.3 (P03372 whole entry E203W/Q214V/G215R/H216P/N217T/G400V): as the sequence (P03372 whole entry E203W/Q214A/H216G/G400V) above, with A214V, G215R, G216P, N217T counted along it
Sequence of ER 2 (P03372 whole entry E203W/Q214A/G215R/G400V): as the sequence (P03372 whole entry E203W/Q214A/H216G/G400V) above, with G215R, G216H counted along it

Compound: O=C(c1ccc(OCCN2CCCCC2)cc1)c1c(-c2ccc(O)cc2)sc2cc(O)ccc12 [Raloxifene]
- transcription activation when bound to mutant and chimeric estrogen receptors [1]: fail to activate transcription

Compound: 4-hydroxytamoxifen [OHT]
- agonism on ATL8/cERE-LUC, OHT compared with moxestrol (wild type hERα; 10 nM ligand): weaker agonist than moxestrol
- transactivation of ATL8/PAL-LUC, OHT compared with MOX (wild type hERα; 10 nM ligand): higher with OHT than with MOX
- transactivation level on two copies of pS2 PAL (wild type hERα; ATL2/PAL-LUC, 10 nM ligand): undetectable
- agonist activity when bound to the cERE (wild type hERα; ATL2/cERE-LUC, 10 nM OHT): weak agonist activity
- induction of luciferase activity from ATL8/PAL (wild type hERα; ATL8/PAL-LUC, 5 ng expression plasmid, 10 nM OHT): 52 fold
- transactivation by OHT compared with MOX (ER3M; ATL2/PAL-LUC, 10 nM ligand): exceeded that seen with MOX
- increase in reporter gene expression by OHT (ER3M; [6]): 117 fold
- maximal level of transactivation (ER3M; ATL8/PAL-LUC, tamoxifen compared with OHT): similar
- transactivation by OHT compared with MOX (ER 2): equal to that seen with MOX
- transactivation by OHT compared with MOX (ER 4.3; ATL2/PAL-LUC, 10 nM ligand): equal to that seen with MOX
- increase in reporter gene expression by OHT (ER 4.3; [6]): 172 fold
- induction upon addition of OHT (N-79 [2]): 28 fold
- agonist character of OHT when pS2 PAL supplied the ERE ([3]; ATL2/PAL-LUC, 10 nM ligand, ER mutants): full agonist
- transactivation in response to OHT, percent of that seen with MOX ([3]; ATL2/pS2 ERE-LUC, 10 nM ligand): about 30%
- OHT transactivation with four copies of pS2 PAL compared with MOX ([3]; ATL4/PAL-LUC, 10 nM ligand): same level of transactivation as MOX
- OHT activity, percent of that seen with MOX ([3]; ATL4/cERE-LUC, wild type hERα and ERs 3M and 4.3, 10 nM ligand): 20–25%
- OHT-mediated activation of transcription on different versions of pS2 PAL reporters ([3]; summary, pS2 PAL reporters and the ER mutants): 70–1000 fold
- increase in luciferase activity upon addition of OHT (N-79 [4]): 813 fold
- increase in luciferase activity upon addition of OHT (N-79 [5]): 1027 fold
- transactivation by OHT, percent of that seen with E2 (ER mutant 4.3; ATL4/PAL-LUC): 45%
- OHT-mediated transactivation, percent of that observed with estradiol (E2) (ER mutant 4.3; ATL4/cERE-LUC): 13%
